Legend:
[1] = Volume of distribution in rat at 1 mg/kg, iv; type: ADME, organism-based; set-up: dose 1 mg/kg, route intravenous; conditions: in vivo
[2] = test system: Rattus norvegicus; assay: Unbound clearance in rat at 1 mg/kg, iv; type: ADME, organism-based; set-up: dose 1 mg/kg, route intravenous; conditions: in vivo
[3] = Oral bioavailability in rat at 3 mg/kg, po; type: ADME, organism-based; conditions: in vivo
[4] = Absorption in rat at 3 mg/kg, po; type: ADME, organism-based; set-up: dose 3 mg/kg, route oral; conditions: in vivo, read-out: Activity
[5] = Inhibition of HIV1 gp160 by cell-cell fusion inhibition assay; set-up: species or system Human immunodeficiency virus 1
[6] = test system: Rattus norvegicus; assay: fAUC in rat at 1 mg/kg, iv; type: ADME, organism-based; set-up: dose 1 mg/kg, route intravenous; conditions: in vivo
[7] = Lipophilicity, log D of the compound; type: physicochemical; conditions: octanol/water
[8] = Terminal half life in rat at 1 mg/kg, iv; type: ADME, organism-based; set-up: dose 1 mg/kg, route intravenous; conditions: in vivo, read-out: beta t1/2 (converted)
[9] = test system: Rattus norvegicus; assay: fAUC in rat at 3 mg/kg, po; type: ADME, organism-based; set-up: dose 3 mg/kg, route oral; conditions: in vivo
[10] = Metabolic stability in human liver microsomes assessed as intrinsic clearance at 1 uM; type: ADME, Microsome
[11] = AUC in rat at 1 mg/kg, iv; type: ADME, organism-based; set-up: dose 1 mg/kg, route intravenous; conditions: plasma
[12] = AUC in rat at 3 mg/kg, po; type: ADME, organism-based; set-up: dose 3 mg/kg, route oral; conditions: plasma
[13] = molecular target: T1, Voltage-gated inwardly rectifying potassium channel KCNH2 (Homo sapiens, UniProt Q12809); assay: Inhibition of human ERG
T1 sequence (Q12809 whole entry): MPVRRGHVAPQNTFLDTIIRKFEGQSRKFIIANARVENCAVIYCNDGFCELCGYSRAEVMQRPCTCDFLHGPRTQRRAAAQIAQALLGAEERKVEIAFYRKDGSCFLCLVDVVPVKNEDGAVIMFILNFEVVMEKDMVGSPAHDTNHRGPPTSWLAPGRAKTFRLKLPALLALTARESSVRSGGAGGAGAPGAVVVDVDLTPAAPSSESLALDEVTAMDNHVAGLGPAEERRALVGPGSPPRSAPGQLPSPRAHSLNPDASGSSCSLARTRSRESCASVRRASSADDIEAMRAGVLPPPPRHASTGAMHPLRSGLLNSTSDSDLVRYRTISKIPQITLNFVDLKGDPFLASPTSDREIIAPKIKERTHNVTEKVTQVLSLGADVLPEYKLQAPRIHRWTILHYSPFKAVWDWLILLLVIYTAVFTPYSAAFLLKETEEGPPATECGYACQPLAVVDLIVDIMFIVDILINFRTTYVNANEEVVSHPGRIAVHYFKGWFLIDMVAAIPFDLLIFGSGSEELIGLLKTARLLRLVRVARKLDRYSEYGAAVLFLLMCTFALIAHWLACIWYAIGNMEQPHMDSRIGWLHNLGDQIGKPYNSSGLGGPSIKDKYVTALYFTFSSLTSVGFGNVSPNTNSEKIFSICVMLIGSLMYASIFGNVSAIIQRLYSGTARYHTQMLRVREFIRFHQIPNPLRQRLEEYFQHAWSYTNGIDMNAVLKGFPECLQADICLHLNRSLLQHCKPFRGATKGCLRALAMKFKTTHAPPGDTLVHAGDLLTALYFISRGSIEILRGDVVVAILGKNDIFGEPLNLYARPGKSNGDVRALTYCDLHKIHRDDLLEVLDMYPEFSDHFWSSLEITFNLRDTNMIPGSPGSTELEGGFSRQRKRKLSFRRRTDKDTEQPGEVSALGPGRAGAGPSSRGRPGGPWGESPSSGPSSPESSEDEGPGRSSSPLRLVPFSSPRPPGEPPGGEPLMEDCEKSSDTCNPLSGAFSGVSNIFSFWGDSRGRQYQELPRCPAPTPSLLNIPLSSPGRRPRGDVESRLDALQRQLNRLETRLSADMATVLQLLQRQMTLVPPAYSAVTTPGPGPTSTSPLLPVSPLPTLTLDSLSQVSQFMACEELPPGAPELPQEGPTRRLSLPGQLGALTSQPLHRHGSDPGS

[14] = Metabolic stability in rat liver microsomes assessed as intrinsic clearance; type: ADME, Microsome
[15] = test system: Rattus norvegicus; assay: Unbound volume of distribution in rat at 1 mg/kg, iv; type: ADME, organism-based; set-up: dose 1 mg/kg, route intravenous; conditions: in vivo
[16] = Membrane permeability across dog RRCK at 2 uM; type: ADME, cell-based, Canis lupus familiaris, MDCKII-LE; conditions: MDCK, read-out: permeability
[17] = Clearance in rat at 1 mg/kg, iv; type: ADME, organism-based; set-up: dose 1 mg/kg, route intravenous; conditions: in vivo
[18] = Permeability from apical to basolateral side in human Caco-2 cells at 5 uM; type: ADME, cell-based; conditions: read-out: permeability
[19] = Permeability from apical to basolateral side of human Caco-2 cells at 5 uM; type: ADME, cell-based; conditions: read-out: permeability
[20] = molecular target: T1, Voltage-gated inwardly rectifying potassium channel KCNH2; assay: Inhibition of human ERG at 10 uM
[21] = Volume of distribution in rat at 1 mg/kg, iv and 2 mg/kg, po; type: ADME, organism-based; conditions: in vivo
[22] = Half life in rat at 1 mg/kg, iv and 2 mg/kg, po; type: ADME, organism-based; conditions: in vivo
[23] = Clearance in rat at 1 mg/kg, iv and 2 mg/kg, po; type: ADME, organism-based; conditions: in vivo
[24] = Oral bioavailability in rat at 1 mg/kg, iv and 2 mg/kg, po; type: ADME, organism-based; conditions: in vivo

| Compound | IC50 [5] | microsomal CLint at 1 µM [10] | Papp at 2 µM [16] | inhibition (INH) [20] | also measured |
| --- | --- | --- | --- | --- | --- |
| Cc1nc2ccccc2n1C1C[C@H]2CC[C@@H](C1)N2CC[C@H](NC(=O)C1CCSCC1)c1cccc(F)c1 (stereo not given in full) | 0.2 nM | > 320 µL/min/mg | 29 ×10⁻⁶ cm/s |  | Vd [1]: 2 L/kg; CL free [2]: 2431 mL/min/kg; bioavailability [3]: 1%; Fa [4]: 9%; fAUC [6]: 6.7 ng·h/mL; logD [7]: 3.7; half-life [8]: 0.8 h; fAUC [9]: 0.25 ng·h/mL; AUC [11]: 270 ng·h/mL; AUC [12]: 10 ng·h/mL; IC50 [13]: 740 nM; microsomal CLint [14]: > 510 µL/min/mg; Vdu [15]: 81 L/kg; clearance [17]: 60 mL/min/kg |
| Cc1nc2ccc(F)cc2n1C1C[C@H]2CC[C@@H](C1)N2CCC(NC(=O)C1CC[S+]([O-])CC1)c1cccc(F)c1 (stereo not given in full) | 0.01 nM |  |  | Not Active | Papp A→B at 5 µM [18]: 18 ×10⁻⁶ cm/s; Papp A→B at 5 µM [19]: 2 ×10⁻⁶ cm/s |
| Cc1nc2cc(F)ccc2n1C1C[C@H]2CC[C@@H](C1)N2CC[C@H](NC(=O)c1ccc[n+]([O-])c1)c1cccc(F)c1 (stereo not given in full) | 1 nM |  |  |  |  |
| Cc1nc2cnccc2n1C1C[C@H]2CC[C@@H](C1)N2CC[C@H](NC(=O)C1CC[S+]([O-])CC1)c1cccc(F)c1 (stereo not given in full) | 4 nM |  |  |  |  |
| Cc1nc2ccccc2n1C1C[C@H]2CC[C@@H](C1)N2CC[C@H](NC(=O)C1CC[S+]([O-])CC1)c1cccc(F)c1 (stereo not given in full) | 0.2 nM | 38 µL/min/mg | 0.8 ×10⁻⁶ cm/s | Not Active | logD [7]: 2.3; Vd [21]: 23 L/kg; half-life [22]: 2.6 h; clearance [23]: 104 mL/min/kg; IC50 [13]: > 10000 nM; bioavailability [24]: < 1% |
| CCc1nc2ccccc2n1C1C[C@H]2CC[C@@H](C1)N2CCC(NC(=O)C1CC[S+]([O-])CC1)c1cccc(F)c1 (stereo not given in full) | 0.05 nM | 89 µL/min/mg | 2 ×10⁻⁶ cm/s | Not Active |  |
| Cc1nc2ccncc2n1C1C[C@H]2CC[C@@H](C1)N2CC[C@H](NC(=O)c1cc[n+]([O-])cc1)c1cccc(F)c1 (stereo not given in full) | 4 nM |  |  |  |  |
| Cc1nc2cc(F)ccc2n1C1C[C@H]2CC[C@@H](C1)N2CC[C@H](NC(=O)c1ccc(S(C)(=O)=O)cc1)c1cccc(F)c1 (stereo not given in full) | 8 nM |  |  |  |  |
| Cc1nc2ccccc2n1C1C[C@H]2CC[C@@H](C1)N2CC[C@H](NC(=O)C1CCS(=O)(=O)CC1)c1cccc(F)c1 (stereo not given in full) | 0.2 nM | 23 µL/min/mg | 4 ×10⁻⁶ cm/s | Not Active | Papp A→B at 5 µM [18]: 20 ×10⁻⁶ cm/s; fAUC [9]: < 0.1 ng·h/mL; AUC [12]: < 1 ng·h/mL; Papp A→B at 5 µM [19]: < 1 ×10⁻⁶ cm/s |
| Cc1nc2ccccc2n1C1C[C@H]2CC[C@@H](C1)N2CC[C@H](NC(=O)[C@H]1CC[S@+]([O-])CC1)c1cccc(F)c1 (stereo not given in full) |  | 111 µL/min/mg | 1 ×10⁻⁶ cm/s |  | fAUC [9]: 0.3 ng·h/mL; AUC [12]: 2 ng·h/mL |
| Cc1nc2ccccc2n1C1C[C@H]2CC[C@@H](C1)N2CC[C@H](NC(=O)c1ccc[n+]([O-])c1)c1cccc(F)c1 (stereo not given in full) | 5 nM |  |  |  |  |
| Cc1nc2ccncc2n1C1C[C@H]2CC[C@@H](C1)N2CC[C@H](NC(=O)C1CCS(=O)(=O)CC1)c1cccc(F)c1 (stereo not given in full) | 0.2 nM | < 8 µL/min/mg | 1 ×10⁻⁶ cm/s | Not Active |  |
| Cc1nc2ccccc2n1C1C[C@H]2CC[C@@H](C1)N2CC[C@H](NC(=O)c1cccc[n+]1[O-])c1cccc(F)c1 (stereo not given in full) | > 100 nM |  |  |  |  |
| CCc1nc2ccccc2n1C1C[C@H]2CC[C@@H](C1)N2CC[C@H](NC(=O)c1cc[n+]([O-])cc1)c1cccc(F)c1 (stereo not given in full) | 24 nM |  |  |  |  |
| Cc1nc2cc(F)ccc2n1C1C[C@H]2CC[C@@H](C1)N2CC[C@H](NC(=O)c1cc[n+]([O-])cc1)c1cccc(F)c1 (stereo not given in full) | 0.1 nM |  |  |  |  |
| Cc1nc2ccccc2n1C1C[C@H]2CC[C@@H](C1)N2CC[C@H](NC(=O)c1ccc(S(C)(=O)=O)cc1)c1cccc(F)c1 (stereo not given in full) | 40 nM |  |  |  |  |
| Cc1nc2ccccc2n1C1C[C@H]2CC[C@@H](C1)N2CC[C@H](NC(=O)c1cc[n+]([O-])cc1)c1cccc(F)c1 (stereo not given in full) | 4 nM |  |  |  |  |
| Cc1nc2cc(F)ccc2n1C1C[C@H]2CC[C@@H](C1)N2CC[C@H](NC(=O)C1CCS(=O)(=O)CC1)c1cccc(F)c1 (stereo not given in full) | 0.03 nM | 14 µL/min/mg | 2 ×10⁻⁶ cm/s | Not Active | Papp A→B at 5 µM [18]: 21 ×10⁻⁶ cm/s; Papp A→B at 5 µM [19]: 3 ×10⁻⁶ cm/s |
| Cc1nc2ccccc2n1C1C[C@H]2CC[C@@H](C1)N2CC[C@H](NC(=O)c1ccc([S+](C)[O-])cc1)c1cccc(F)c1 (stereo not given in full) | 40 nM |  |  |  |  |
| Cc1nc2ccccc2n1C1C[C@H]2CC[C@@H](C1)N2CC[C@H](NC(=O)[C@H]1CC[S@@+]([O-])CC1)c1cccc(F)c1 (stereo not given in full) |  | 36 µL/min/mg | 1 ×10⁻⁶ cm/s |  | Papp A→B at 5 µM [18]: 20 ×10⁻⁶ cm/s; fAUC [9]: 1.7 ng·h/mL; AUC [12]: 11 ng·h/mL; Papp A→B at 5 µM [19]: 2 ×10⁻⁶ cm/s |
| CCc1nc2ccccc2n1C1C[C@H]2CC[C@@H](C1)N2CC[C@H](NC(=O)C1CCS(=O)(=O)CC1)c1cccc(F)c1 (stereo not given in full) | 0.3 nM | 25 µL/min/mg | 3 ×10⁻⁶ cm/s | Not Active |  |
| Cc1nc2ccc(F)cc2n1C1C[C@H]2CC[C@@H](C1)N2CC[C@H](NC(=O)C1CCS(=O)(=O)CC1)c1cccc(F)c1 (stereo not given in full) | 0.01 nM | 10 µL/min/mg | 2 ×10⁻⁶ cm/s |  | Fa [4]: 3%; Papp A→B at 5 µM [18]: 31 ×10⁻⁶ cm/s; logD [7]: 2.9; Papp A→B at 5 µM [19]: 5 ×10⁻⁶ cm/s |
| Cc1nc2ccncc2n1C1C[C@H]2CC[C@@H](C1)N2CC[C@H](NC(=O)c1ccc([S+](C)[O-])cc1)c1cccc(F)c1 (stereo not given in full) | 2 nM |  |  |  |  |
| CC[S+]([O-])CC(=O)N[C@@H](CCN1[C@@H]2CC[C@H]1CC(n1c(C)nc3ccccc31)C2)c1cccc(F)c1 (stereo not given in full) | > 100 nM |  |  |  |  |
| Cc1nc2ccc(F)cc2n1C1C[C@H]2CC[C@@H](C1)N2CC[C@H](NC(=O)c1ccc([S+](C)[O-])cc1)c1cccc(F)c1 (stereo not given in full) | 1 nM |  |  |  |  |
| Cc1nc2cc(F)ccc2n1C1C[C@H]2CC[C@@H](C1)N2CC[C@H](NC(=O)c1ccc([S+](C)[O-])cc1)c1cccc(F)c1 (stereo not given in full) | 36 nM |  |  |  |  |
| Cc1nc2ccncc2n1C1C[C@H]2CC[C@@H](C1)N2CC[C@H](NC(=O)c1ccc(S(C)(=O)=O)cc1)c1cccc(F)c1 (stereo not given in full) | 1 nM |  |  |  |  |
| Cc1nc2cc(F)ccc2n1C1C[C@H]2CC[C@@H](C1)N2CCC(NC(=O)C1CC[S+]([O-])CC1)c1cccc(F)c1 (stereo not given in full) | 0.4 nM | 93 µL/min/mg | 2 ×10⁻⁶ cm/s | Not Active |  |
| Cc1nc2ccncc2n1C1C[C@H]2CC[C@@H](C1)N2CCC(NC(=O)C1CC[S+]([O-])CC1)c1cccc(F)c1 (stereo not given in full) | 1 nM | 50 µL/min/mg |  | Not Active | Papp A→B at 5 µM [18]: 2 ×10⁻⁶ cm/s; Papp A→B at 5 µM [19]: 2 ×10⁻⁶ cm/s |
| Cc1nc2ccc(F)cc2n1C1C[C@H]2CC[C@@H](C1)N2CC[C@H](NC(=O)c1ccc[n+]([O-])c1)c1cccc(F)c1 (stereo not given in full) | 0.5 nM |  |  |  |  |

Source: ChEMBL document CHEMBL1268988, “An in situ oxidation strategy towards overcoming hERG affinity” (Bioorg Med Chem Lett, 2010)
